According to US20060079533A1, “Methods of treating alzheimer's disease” (priority 2001, published 2006):
Where a name gives a salt, the structure may show the parent alone.

melting point: 159 to 161 °C (dec.)
SMILES: Clc1ccc([C@H]2CCNC[C@@H]2OCc2ccc3ccccc3c2)cc1 (racemic) (as salt: hydrochloride) [Example 12, (3RS,4RS)-4-(4-chloro-phenyl)-3-(naphthalen-2-ylmethoxy)-piperidine]
